Measurements published in patent publication US20130029970A1 (priority 2009, published 2013).
Where two headings read alike, the source gives them in different places.

Experiments:
human CB2 (hCB2) = biological target: T1, human CB2 (hCB2) (Homo sapiens, UniProt P34972); experiment: 35S GTPγS binding assay, hCB2 agonist; assay type: biochemical
T1 construct: (cDNA clone) CNR0200000
Summary of the method: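 Agonist-stimulated [35S]GTPγS (0.1 nM) binding measured by scintillation proximity after 90 min at room temperature. Reaction buffer: 50 mM HEPES pH 7.4, 100 mM NaCl, 5 mM MgCl2, 0.001% saponin plus 20 uM GDP. Membranes (5 μg) came from transfected cells expressing hCB2 cDNA (pcDNA3.1+ vector).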

human CB1 (hCB1) = biological target: T2, human CB1 (hCB1) (Homo sapiens, UniProt P21554); experiment: 35S GTPγS binding assay, hCB1 agonist; assay type: biochemical
T2 construct: (cDNA clone) CNR01L000
T2 sequence (P21554 whole entry): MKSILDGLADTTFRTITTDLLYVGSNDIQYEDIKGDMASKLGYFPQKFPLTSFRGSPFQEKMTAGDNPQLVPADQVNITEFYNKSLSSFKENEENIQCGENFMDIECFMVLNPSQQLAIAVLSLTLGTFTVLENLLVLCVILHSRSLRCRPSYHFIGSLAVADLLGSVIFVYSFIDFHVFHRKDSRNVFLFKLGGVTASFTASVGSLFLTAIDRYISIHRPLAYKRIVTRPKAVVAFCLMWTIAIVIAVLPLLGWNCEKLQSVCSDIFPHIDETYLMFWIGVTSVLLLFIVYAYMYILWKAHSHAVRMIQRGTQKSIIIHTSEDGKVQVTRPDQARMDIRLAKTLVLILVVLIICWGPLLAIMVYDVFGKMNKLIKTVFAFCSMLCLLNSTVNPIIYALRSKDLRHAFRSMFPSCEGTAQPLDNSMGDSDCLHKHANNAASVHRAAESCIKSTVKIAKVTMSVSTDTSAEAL

[1] = biological target: T3, recombinant human cannabinoid receptor CB2 (Homo sapiens, UniProt P34972); experiment: Cannabinoid receptor radioligand binding assay, [3H]-CP 55,940 displacement, hCB2
T3 construct: (cDNA clone) CNR0200000
T3 sequence (P34972 whole entry): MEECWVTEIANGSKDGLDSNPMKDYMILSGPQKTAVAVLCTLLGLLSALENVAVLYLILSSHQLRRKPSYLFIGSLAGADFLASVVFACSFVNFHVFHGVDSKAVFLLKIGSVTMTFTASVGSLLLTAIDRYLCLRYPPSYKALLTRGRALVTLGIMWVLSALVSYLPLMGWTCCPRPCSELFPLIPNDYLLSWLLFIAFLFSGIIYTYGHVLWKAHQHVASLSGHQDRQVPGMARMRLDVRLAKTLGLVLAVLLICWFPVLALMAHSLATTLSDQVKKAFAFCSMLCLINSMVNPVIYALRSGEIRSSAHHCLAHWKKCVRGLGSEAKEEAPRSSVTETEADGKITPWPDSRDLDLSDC
Summary of the method: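 Receptor source: membrane pellet (40,000×g) from transfected cells, stored in HEPES pH 7.4/MgCl2/EDTA/sucrose buffer.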

[2] = GTPγS agonist, HEK-293 membranes, read-out: hCB1 EC50 (GTPyS ag)

T1 sequence (P34972 whole entry): as above

SMILES	EC50 (human CB2 (hCB2))	EC50 (human CB1 (hCB1); [2])	IC50 [1]	EC50 (human CB1 (hCB1))	EC50 (human CB2 (hCB2); GTPγS agonist, HEK-293 membranes, read-out: hCB2 EC50 (GTPyS ag))
COc1ccc(C(=O)c2cc3cc(C)n(CCC(C)(C)O)c3s2)cc1 [Compound 77, (6-(3-Hydroxy-3-methylbutyl)-5-methyl-6H-thieno[2,3-b]pyrrol-2-yl)(4-methoxyphenyl)methanone]	100 to 1000 nM	< 100 nM	1000 to 10000 nM	–	–
Cc1ccc(C(=O)c2cc3cc(C)n(CCN4CCOCC4)c3s2)c(Cl)c1 [Compound 86, (2-Chloro-4-methylphenyl)(5-methyl-6-(2-morpholinoethyl)-6H-thieno[2,3-b]pyrrol-2-yl)methanone]	< 100 nM	1000 to 10000 nM	< 100 nM	–	–
COc1ccc(C(=O)c2cc3cc(C)n(CCN4CCOCC4)c3s2)c(Cl)n1 [Compound 137, (2-chloro-6-methoxypyridinyl-3-yl)(5-methyl-6-(2-morpholinoethyl)-6H-thieno[2,3-b]pyrrol-2-yl)methanone]	< 100 nM	1000 to 10000 nM	< 100 nM	–	–
Cc1cc2cc(C(=O)c3ccc(O)cc3F)sc2n1CCN1CCOCC1 [Compound 165, (2-fluoro-4-hydroxyphenyl)(5-methyl-6-(2-morpholinoethyl)-6H-thieno[2,3-b]pyrrol-2-yl)methanone]	100 to 1000 nM	> 10000 nM	–	–	–
Cc1c(Cl)c2cc(C(=O)c3cccc(Cl)c3Cl)sc2n1CCN1CCOCC1 [Compound 27, (4-chloro-5-methyl-6-(2-morpholinoethyl)-6H-thieno[2,3-b]pyrrol-2-yl)(2,3-dichlorophenyl)methanone]	< 100 nM	–	< 100 nM	100 to 1000 nM	–
COc1ccc(C(=O)c2cc3cc(C)n(CC4CCC(F)(F)CC4)c3s2)cn1 [Compound 170, (6-((4,4-difluorocyclohexyl)methyl)-5-methyl-6H-thieno[2,3-b]pyrrol-2-yl)(6-methoxypyridin-3-yl)methanone]	< 100 nM	< 100 nM	100 to 1000 nM	–	–
Cc1cc2cc(C(=O)c3cc(Cl)ccc3Cl)sc2n1CCN1CCOCC1 [Compound 35, (2,5-Dichlorophenyl)(5-methyl-6-(2-morpholinoethyl)-6H-thieno[2,3-b]pyrrol-2-yl)methanone]	< 100 nM	100 to 1000 nM	< 100 nM	–	–
COCCN(C)CCn1c(C)cc2cc(C(=O)c3ccc(OC)nc3)sc21 [Compound 157]	1000 to 10000 nM	> 10000 nM	–	–	–
COc1ccc(C(=O)c2cc3cc(C)n(CCCN4CCOCC4)c3s2)cc1 [Compound 107, (4-Methoxyphenyl)(5-methyl-6-(3-morpholinopropyl)-6H-thieno[2,3-b]pyrrol-2-yl)methanone]	–	100 to 1000 nM	< 100 nM	–	< 100 nM
Cc1cc2cc(C(=O)c3ccccc3OC(F)(F)F)sc2n1CCN1CCOCC1 [Compound 15, (5-Methyl-6-(2-morpholinoethyl)-6H-thieno[2,3-b]pyrrol-2-yl)(2-(trifluoromethoxy)phenyl)methanone]	< 100 nM	100 to 1000 nM	< 100 nM	–	–
COc1ccc(C(=O)c2cc3cc(C)n(CCCNC(=O)C(F)(F)F)c3s2)cc1 [Compound 76, 2,2,2-Trifluoro-N-(3-(2-(4-methoxybenzoyl)-5-methyl-6H-thieno[2,3-b]pyrrol-6-yl)propyl)acetamide]	100 to 1000 nM	< 100 nM	100 to 1000 nM	–	–
